This is an account of results in US10717731B2, “Nitrogen-containing aromatic heterocyclic compound” (MITSUBISHI TANABE PHARMA CORPORATION, priority 2015, dated 2020).

What is called IC50 is the concentration needed to halve the response being measured. Low values mean greater potency in that assay, high ones weaker potency in that assay.

This assay addresses T1, human CYP11B2 (Homo sapiens, UniProt P19099).
T1 construct: expressed in transfected cells; mitochondrial fraction
T1 sequence (P19099 25-503): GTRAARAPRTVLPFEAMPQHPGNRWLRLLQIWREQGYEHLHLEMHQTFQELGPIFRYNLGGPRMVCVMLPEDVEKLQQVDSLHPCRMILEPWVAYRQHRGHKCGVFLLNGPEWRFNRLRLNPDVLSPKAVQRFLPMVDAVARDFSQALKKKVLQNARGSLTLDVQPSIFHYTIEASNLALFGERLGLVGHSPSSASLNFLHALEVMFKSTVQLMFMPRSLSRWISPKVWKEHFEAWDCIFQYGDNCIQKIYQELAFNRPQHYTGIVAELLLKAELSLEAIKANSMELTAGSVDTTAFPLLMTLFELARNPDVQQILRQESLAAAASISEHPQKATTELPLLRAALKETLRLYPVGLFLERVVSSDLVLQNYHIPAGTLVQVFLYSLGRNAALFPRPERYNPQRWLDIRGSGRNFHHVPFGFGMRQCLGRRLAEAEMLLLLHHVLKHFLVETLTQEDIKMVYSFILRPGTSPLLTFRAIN
Description: Inhibitory effect on hCYP11B2: aldosterone production in mitochondrial fraction of V79 cells stably expressing human CYP11B2, HTRF. It is filed as biochemical. The note with it: 0.5 μmol/L deoxycorticosterone, 150 μmol/L NADPH, 1.5-2 hours at room temperature. On the procedure:
Experimental Example 1 (Inhibitory Effect on hCYP11B2)
The pcDNA3.1-human CYP11B2 plasmid was transfected into a Chinese hamster lung fibroblast V79 cell line to produce a cell line stably expressing human CYP11B2 gene.
The cells were cultured and grown in the Dulbecco's modified Eagle's/Ham's medium supplemented with 10% fetal bovine serum and 1% G418 disulfate solution under the environment of 37° C., 95% air, and 5% CO2, and the grown cells were harvested.
Then, the cells were fractionated to obtain mitochondria by reference to a method described in Chabre et al. JCE & M 85 (11) 4060-68, 2000. In particular, the cells suspended in a 5 mmol/L Tris-HCl buffer (pH 7.4) containing 250 mmol/L sucrose were homogenized in a Teflon (Registered Trademark) Potter Elvehjem homogenizer, and then the suspension was centrifuged (800×g, 15 min.). The supernatant was separated and again centrifuged (10000×g, 15 min.) to obtain a pellet (mitochondrial fraction).
The mitochondrial fraction diluted with a buffer containing 10 mmol/L KH2PO4, 10 mmol/L Tris, 20 mmol/L KCl, 25 mmol/L sucrose, 5 mmol/L MgCl2, and 0.05% bovine serum albumin was dispensed to a 96-well plate. 0.5 μmol/L Deoxycorticosterone, 150 μmol/L NADPH and a compound of each concentration were added to each well, and incubated for 1.5-2 hours at room temperature to produce aldosterone. An amount of the produced aldosterone in the incubated solution was determined by using HTRF (Homogeneous Time Resolved Fluorescence) method.
IC50 (nmol/L) was calculated by analyzing the aldosterone production inhibition rate (%) of each concentration of compounds by non-linear regression to a logistic curve.
(In TR-FRET formats the signal depends on donor and acceptor labels being close together.)
With `CN(C)[C@H]1CC[C@H](NC(=O)CN2CCN(c3cncc(-c4ccc(F)cc4)n3)CC2)CC1` [Example 31], the IC50 was determined as 5.1 nM.
For the molecule `CC(C)NC(=O)CN1CCN(c2cncc(-c3ccc(C#N)nc3)c2)CC1` [Example 11], the IC50 came out at 18 nM.
To `Cn1ncc2ccc(-c3cncc(N4CCN(CC(=O)N[C@H]5CC[C@@H](CO)CC5)CC4)n3)cc21` [Example 22] belongs 19 nM.
To `O=C(CN1CCN(c2cc(-c3ccc(F)cc3)cnn2)CC1)NC1CCC(N2CCOCC2)CC1` (stereo not shown) [Example 72] belongs 11 nM; to `CC1CC=C(c2cncc(N3CCN(CC(=O)NC(C)C)CC3)c2)CC1` (stereo not shown) [Example 16], 6.9 nM; to `COCc1ccc(-c2cnnc(N3CCN(CC(=O)N[C@H]4CC[C@@H](N(C)C)CC4)CC3)c2)cc1` [Example 76], 103 nM.
To `O=C(CN1CCN(c2cc(-c3ccc(Cl)cc3)cnn2)CC1)NC1CCS(=O)(=O)CC1` [Example 70] belongs 6 nM.
In turn, `C[C@@H]1CN(c2cncc(-c3ccc(C(F)(F)F)cc3)n2)CCN1CC(=O)N[C@@H](C)C(C)(C)O` [Example 44] returned a concentration for half-maximal inhibition (IC50) of 56 nM.
As for `C[C@@H]1CN(c2cncc(-c3ccc(C(F)(F)F)cc3)n2)CCN1CC(=O)NCC(C)(C)O` [Example 45], the midpoint of inhibition, the IC50, lay at 20 nM.
To `CNC(=O)COC1CCC(NC(=O)CN2CCN(c3cc(-c4ccc(Cl)cc4)cnn3)CC2)CC1` (stereo not shown) [Example 68] belongs 8.3 nM; to `O=C1CN([C@H]2CC[C@@H](NC(=O)CN3CCN(c4cncc(-c5ccc(F)cc5)n4)CC3)CC2)CCN1` [Example 33], 3.9 nM; to `C[C@H](O)CNC(=O)CN1CCN(c2cncc(-c3ccc4cnn(C)c4c3)n2)CC1` [Example 18], 14 nM.
To `Cc1ccccc1-c1cnnc(N2CCN(CC(=O)Nc3cccnc3)CC2)c1` [Example 61] belongs 2.5 nM; to `CC(C)NC(=O)CN1CCN(c2cc(-c3ccc(C#N)nc3)cnn2)CC1` [Example 83], 102 nM.
In turn, `CC1CC=C(c2cnnc(N3CCN(CC(=O)NC(C)C)CC3)c2)CC1` (stereo not shown) [Example 81] showed a 50% inhibitory concentration (IC50) of 9.1 nM.
The molecule `Cc1ccccc1-c1cncc(N2CCN(CC(=O)Nc3cnn(C)c3)CC2)c1` [Example 7] displayed an IC50 of 4.8 nM. This IC50 is about 1.9-fold lower than that of the molecule before.
In turn, `CNC(=O)COC1CCC(NC(=O)CN2CCN(c3cc(-c4ccc(F)cc4)cnn3)CC2)CC1` (stereo not shown) [Example 66] came in with a 50% inhibitory concentration (IC50) of 9.6 nM.
In turn, `CO[C@H]1CC[C@@H](NC(=O)CN2CCN(c3cncc(-c4ccc5c(cnn5C)c4)n3)CC2)CC1` [Example 28] had a half-maximal inhibitory concentration (IC50) of 10 nM.
To `C[C@@H]1CN(c2cncc(-c3ccc(C(F)(F)F)cc3)n2)CCN1CC(=O)N[C@H]1CC[C@](C)(O)CC1` [Example 43] belongs 41 nM.
To `CS(=O)(=O)N1CCC(CNC(=O)CN2CCN(c3cc(-c4ccc(F)cc4)cnn3)CC2)CC1` [Example 62] belongs 11 nM.
To `CC1CCC(c2cnnc(N3CCN(CC(=O)NC(C)C)CC3)c2)CC1` (stereo not shown) [Example 84] belongs 32 nM; to `CC1CCC(c2cncc(N3CCN(CC(=O)NC(C)C)CC3)c2)CC1` (stereo not shown) [Example 17], 17 nM.
The molecule `Cc1ccc(-c2cnnc(N3CCN(CC(=O)N[C@@H]4CCOC[C@@H]4O)CC3)c2)cc1` [Example 58] came in with an IC50 of 20 nM.
To `Cc1ccc(-c2cncc(N3CCN(CC(=O)NCC4(O)CCN(C)CC4)CC3)n2)cc1` [Example 21] belongs 28 nM; to `O=C(CN1CCN(c2cc(-c3ccc(Cl)cc3)cnn2)CC1)NC1CCNCC1O` (single isomer, unassigned) [Example 90b], 76 nM.
To `CN1CCC(NC(=O)CN2CCN(c3cncc(-c4ccc5cnn(C)c5c4)n3)CC2)CC1` [Example 27] belongs 42 nM; to `CC(C)NC(=O)CN1CCN(c2cncc(-c3ccc(C(F)(F)F)cc3)n2)C[C@H]1C` [Example 51], 17 nM.
To `Cc1ccc(-c2cnnc(N3CCN(CC(=O)NC[C@H]4CN(C)CCO4)CC3)c2)cc1` [Example 60] belongs 18 nM.
Molecule `CN(C)[C@H]1CC[C@@H](NC(=O)CN2CCN(c3cncc(-c4ccc(Cl)cc4)n3)CC2)CC1` [Example 38] had an IC50 of 8.7 nM.
To `COc1ccccc1-c1cnnc(N2CCN(CC(=O)N[C@H]3CC[C@@H](N(C)C)CC3)CC2)c1` [Example 75] belongs 41 nM; to `CN(C)[C@H]1CC[C@H](NC(=O)CN2CCN(c3cc(-c4ccc(Cl)cc4)cnn3)CC2)CC1` [Example 80], 17 nM.
To `CC(C)NC(=O)CN1CCN(c2cncc(-c3ccc4c(c3)CCO4)n2)CC1` [Example 55] belongs 2.2 nM.
To `CC(=O)N[C@H]1CC[C@@H](NC(=O)CN2CCN(c3cncc(-c4ccc(F)cc4)n3)CC2)CC1` [Example 37] belongs 8.4 nM; to `CC(C)[C@@H](CO)NC(=O)CN1CCN(c2cncc(-c3ccc(Cl)cc3)n2)CC1` [Example 39], 4.3 nM; to `CC(C)NC(=O)CN1CCN(c2cncc(-c3ccc(C#N)nc3)n2)CC1` [Example 53], 25 nM.
As to `CN(C)[C@H]1CC[C@H](NC(=O)CN2CCN(c3cc(-c4ccc(F)cc4)cnn3)CC2)CC1` [Example 79], inhibition was half-maximal at 21 nM (IC50).
For `CC(C)NC(=O)CN1CCN(c2cncc(-c3ccc4cn[nH]c4c3)n2)CC1` [Example 56], it took 38 nM to reach half-maximal inhibition (IC50).
To `CC(C)NC(=O)CN1CCN(c2cc(-c3ccc4c(c3)CCO4)cnn2)CC1` [Example 82] belongs 14 nM; to `CO[C@H]1CC[C@@H](NC(=O)CN2CCN(c3cncc(-c4ccc5cnn(C)c5c4)n3)CC2)CC1` [Example 26], 14 nM.
To `O=C(CN1CCN(c2cc(-c3ccc(F)cc3)cnn2)CC1)NCCN1CCS(=O)(=O)CC1` [Example 74] belongs 19 nM; to `Cc1ccccc1-c1cncc(N2CCN(CC(=O)NC3CCN(CCS(C)(=O)=O)CC3)CC2)n1` [Example 47], 22 nM.
To `CN1CCC(NC(=O)CN2CCN(c3cc(-c4ccc(Cl)cc4)cnn3)CC2)CC1=O` (single isomer, unassigned) [Example 91b] belongs 12 nM; to `O=C(CN1CCN(c2cncc(-c3ccc(F)cc3)n2)CC1)NC1CCN(c2ncccn2)CC1` [Example 36], 4.8 nM.
Molecule `CNC(=O)CN1CCC(NC(=O)CN2CCN(c3cc(-c4ccc(C)cc4)cnn3)CC2)CC1` [Example 59] registered an IC50 of 23 nM.
Regarding `CC(C)NC(=O)CN1CCN(c2cc(-c3ccc(C(F)(F)F)cc3)cnn2)CC1` [Example 87], half-maximal inhibition (IC50) was put at 18 nM.
To `COC1CCN(NC(=O)CN2CCN(c3cc(-c4ccc(Cl)cc4)cnn3)CC2)CC1` [Example 65] belongs 9.1 nM; to `C[C@@H]1CN(c2cncc(-c3ccc(C(F)(F)F)cc3)n2)CCN1CC(=O)N[C@H]1CCC[C@H]1O` [Example 46], 26 nM; to `O=C(CN1CCN(c2cc(-c3ccc(Cl)cc3)cnn2)CC1)NC1CCNCC1O` (single isomer, unassigned) [Example 90a], 33 nM.
In the case of `Cc1c(-c2ccc(F)cc2)cnnc1N1CCN(CC(=O)NC(C)C)CC1` [Example 92], the IC50 was 83 nM.
To `Cc1ccccc1-c1cnnc(N2CCN(CC(=O)N[C@H]3CC[C@@H](N(C)C)CC3)CC2)c1` [Example 77] belongs 22 nM; to `Cn1ncc2ccc(-c3cncc(N4CCN(CC(=O)NN5CCCC5)CC4)n3)cc21` [Example 54], 16 nM.
To `O=C(CN1CCN(c2cncc(-c3ccc(F)cc3)c2)CC1)NC1CCn2ccnc2C1` (stereo not shown) [Example 1] belongs 6.6 nM; to `CN(C)[C@H]1CC[C@@H](NC(=O)CN2CCN(c3cc(-c4c(F)cccc4F)cnn3)CC2)CC1` [Example 67], 41 nM; to `C[C@H](O)CNC(=O)CN1CCN(c2cc(-c3ccc(F)cc3)cnn2)CC1` [Example 63], 8.8 nM.
To `CC(=O)N[C@H]1CC[C@@H](NC(=O)CN2CCN(c3cc(-c4ccc(Cl)cc4)cnn3)CC2)CC1` [Example 69] belongs 12 nM; to `Cc1ccccc1-c1cncc(N2CCN(CC(=O)N[C@H]3CN4CCC3CC4)CC2)n1` [Example 48], 14 nM.
The molecule `O=C(CN1CCN(c2cncc(-c3ccc(Cl)cc3)n2)CC1)NN1CCCC1` [Example 40] showed an IC50 of 4 nM.
Consider `O=C(CN1CCN(c2cc(-c3ccc(F)cc3)cnn2)CC1)N[C@@H]1CCNC[C@H]1F` (single isomer, unassigned) [Example 89a], for which inhibition was half-maximal at 7.4 nM (IC50).
